Experimental data published in US8362023B2, “Pyrazolo pyrimidines” (Hoffmann-La Roche Inc., priority 2011, dated 2013).
Where a name gives a salt, the structure may show the parent alone.

Tests used:
[1] = molecular target: T1, Human DYRK1B (Homo sapiens, UniProt Q9Y463); assay: DYRK1B Kinase TR-FRET (IMAP-Tb) Assay; format: biochemical; details: TR-FRET (IMAP-Tb); ATP 70 μM; 37° C. for 60 minutes; averages of multiple runs; read-out: Enzyme IC50 (μM) DYRK1B
T1 construct: purchased Invitrogen PR8350B (former PV4649)
Source text: DYRK1B Kinase TR-FRET (IMAP-Tb) Assay Assay Principle The kinase TR-FRET (IMAP-Tb) assay uses a fluorescence labeled substrate peptide in the kinase reaction. Upon phosphorylation by the kinase, phosphopeptide is produced, which will be detected by the binding solution provided in IMAP TR-FRET binding kit. After the completion of the kinase reaction, the reaction will be stopped by adding the binding solution containing terbium tracer. This tracer is immobilized on the surface of the IMAP beads, which also contain metal ions on the beads that bind to the phospho-groups of the products. Thus the phosphorylated product of the reaction can enter into close proximity to the tracer, producing resonance energy transfer. Due to the long lifetime of terbium (Tb) fluorescence the detection can be run in time resolved mode, which virtually eliminates fluorescence interference from assay components or compounds. The TR-FRET signal measurement from this assay, given as an IC50 measurement, is a measure of a test compound's ability to interfere with the phosphorylation of the peptide substrate, that is it inhibits the phosphorylation of the substrate peptide by DYRK1B, and is thus a measure of the test compound's ability to inhibit the activity of DYRK1B. IC50 is the amount of test compound that inhibits 50% of the activity of DYRK1B in this assay. In some cases where the IC50 was not determined, then the % inhibition at 10 μM test compound concentration may be reported. Materials and Reagents • 1. Human DYRK1B: from Invitrogen. Part #PR8350B (former PV4649) • 2. Substrate Peptide: in-house synthesized: RRRFRPASPLRGPPK • 3. IMAP TR-FRET IPP Explorer Kit: from Molecular Devices. Part #R8157 • 4. Kinase Assay Buffer (KAB): 10 mM HEPES pH 7.0, 50 mM NaCl, 5 mM MgCl2, 1 mM DTT, 1 mM NaVO4, 200 μg/mL BSA (0.02%) • 5. Assay Plate: Remp polypropylene clear 384-well microplate. Cat#23490-102 • 6. Detection Plate: Costa black 384-well microplate. Cat #3710 Assay Procedure: this Assay was Performed as Follows: • 1. Transfer 1.5 μL of 20× compound solution to each well of an assay plate. • 2. Add to each well 22.5 μL of KAB Buffer. • 3. Add to each well 3 μL of the solution of DYRK1B and ATP. […] Add to each well 3 μL of the substrate peptide. The assay concentration is 1.0 μM • 5. Incubate the assay plates at 37° C. for 60 minutes. • 6. Add 18 μL of Detection Solution (1:800 diluted Progress bead stock, 1:400 diluted Tb stock, 80% Buffer A, and 20% Buffer B) into each well of detection plates. • 7. Transfer 6 μL of assay solution from the assay plate to the detection plate. • 8. Shake detection plates for 30 minutes. • 9. Read plates in Envision with wavelength set at excitation 340 nm for Tb, emission 490 nm, and […] 520 nm. • 10. Calculation: TR-FRET Signal=(Reading at […]/Reading at 490 nM)×2000000

[2] = molecular target: T2, Human DYRK1A (Homo sapiens, UniProt Q13627); assay: DYRK1A Kinase TR-FRET (IMAP-Tb) Assay; format: biochemical; details: TR-FRET (IMAP-Tb); ATP 70 μM; 37° C. for 60 minutes; averages of multiple runs; read-out: Enzyme IC50 (μM) DYRK1A
T2 construct: purchased Invitrogen PV3997
Source text: DYRK1A Kinase TR-FRET (IMAP-Tb) Assay
The kinase TR-FRET (IMAP-Tb) assay uses a fluorescence labeled substrate peptide in the kinase reaction. Upon phosphorylation by the kinase, phosphopeptide is produced, which will be detected by the binding solution provided in IMAP TR-FRET binding kit. After the completion of the kinase reaction, the reaction will be stopped by adding the binding solution containing terbium tracer. This tracer is immobilized on the surface of the IMAP beads, which also contain metal ions on the beads that bind to the phospho-groups of the products. Thus the phosphorylated product of the reaction can enter into close proximity to the tracer, producing resonance energy transfer. Due to the long lifetime of terbium (Tb) fluorescence the detection can be run in time resolved mode, which virtually eliminates fluorescence interference from assay components or compounds.
The TR-FRET signal measurement from this assay, given as an IC50 measurement, is a measure of a test compound's ability to interfere with the phosphorylation of the peptide substrate, that is it inhibits the phosphorylation of the substrate peptide by DYRK1A, and is thus a measure of the test compound's ability to inhibit the activity of DYRK1A.
Materials and Reagents • 1. Human DYRK1A: from Invitrogen. Part #PV3997 • 2. Substrate Peptide: […] • 3. IMAP TR-FRET IPP Explorer Kit: from Molecular Devices. Part #R8157 • 4. Kinase Assay Buffer (KAB): 10 mM HEPES pH 7.0, 50 mM NaCl, 5 mM MgCl2, 1 mM DTT, 1 mM NaVO4, 200 ug/mL BSA (0.02%) • 5. Assay Plate: Remp polypropylene clear 384-well microplate. […] Detection Plate: Costa black 384-well microplate.
Assay Procedure: this Assay was Performed as Follows: • 1. Transfer 1.5 μL of 20× compound solution to each well of an assay plate. • 2. Add to each well 22.5 μL of KAB Buffer. • 3. Add to each well 3 μL of the solution of DYRK1A and ATP. […] Add to each well 3 μL of the substrate peptide. The assay concentration is 1.0 μM • 5. Incubate the assay plates at 37° C. for 60 minutes. • 6. Add 18 μL of Detection Solution (1:800 diluted Progress bead stock, 1:400 diluted Tb stock, 80% Buffer A, and 20% Buffer B) into each well of detection plates. • 7. Transfer 6 μL of assay solution from the assay plate to the detection plate. • 8. Shake detection plates for 30 minutes. • 9. Read plates in Envision with wavelength set at excitation 340 nm for Tb, emission 490 nm, and […] 520 nm. • 10.

[3] = system: SW620 human colon cancer cells; assay: SW620 Cell Viability Assay; format: cell-based; details: SW-620, 96 h, CellTiter-Glo Luminescent Cell Viability Assay, 4 days incubation, read-out: Cellular EC50 (μM) SW620
Procedure: SW620 Cell Viability Assay
1. Cell Plate Preparation: SW620 human colon cancer cells (known to express DYRK1B), obtained from ATCC, were seeded into 96-well plates at 3×10^3 cells/well in 50 μL of media. • Harvested the required number of cells (counts & viability determined by Guava Viacount). • Centrifuge cells to pellet and removed supernant. • Resuspended in growth media (50 μL/well) & pipetted thoroughly to break up clumps. • Setup for ˜100 wells/plate, therefore, VT=5 mL/plate @ […].
1A. Some cells (S—) were allowed to attach for 24 hrs, serum starved for 48 hrs, and then followed with test compound treatments.
Test compound solution were prepared in regular corresponding media supplemented with serum.
2. Test compound Preparation: Drugs were solubilized in either DMSO or media and prepared at various stock concentrations. • All compounds were incubated at 37° C. for 30 minutes and vortexed. • (5 mM stocks of test compound were prepared for non-soluble test compounds)
3. Test compound Plate Preparation: • The 10 mM test compound stock was diluted to a concentration of 100× the final Cmax concentration. • Then the test compound stock is diluted 50-fold in media and/or second test compound for a final Cmax concentration in the test compound plate. • The Cmax in the test compound plate (2% DMSO) is 2-fold higher than the final Cmax in the cell plate (60 μl, titrations were 1:3).
4. Viability Assay: This assay was performed as follows: • Transfer 50 μL of test compound solution per well from the test compound plate onto the cell plate prepared in Step #1. • Mix the plate with treated cells by pipetting up and down three times with 200 μL multi-channel pipette. • Incubate the cells in 5% CO2 incubator @ 37° C. for 4 days. • Run the CellTiter-Glo™ Luminescent Cell Viability Assay.
The results of this assay, given as EC50 values, indicate the concentration of test compound that inhibits tumor cell proliferation by 50%.

T1 sequence (Q9Y463 whole entry): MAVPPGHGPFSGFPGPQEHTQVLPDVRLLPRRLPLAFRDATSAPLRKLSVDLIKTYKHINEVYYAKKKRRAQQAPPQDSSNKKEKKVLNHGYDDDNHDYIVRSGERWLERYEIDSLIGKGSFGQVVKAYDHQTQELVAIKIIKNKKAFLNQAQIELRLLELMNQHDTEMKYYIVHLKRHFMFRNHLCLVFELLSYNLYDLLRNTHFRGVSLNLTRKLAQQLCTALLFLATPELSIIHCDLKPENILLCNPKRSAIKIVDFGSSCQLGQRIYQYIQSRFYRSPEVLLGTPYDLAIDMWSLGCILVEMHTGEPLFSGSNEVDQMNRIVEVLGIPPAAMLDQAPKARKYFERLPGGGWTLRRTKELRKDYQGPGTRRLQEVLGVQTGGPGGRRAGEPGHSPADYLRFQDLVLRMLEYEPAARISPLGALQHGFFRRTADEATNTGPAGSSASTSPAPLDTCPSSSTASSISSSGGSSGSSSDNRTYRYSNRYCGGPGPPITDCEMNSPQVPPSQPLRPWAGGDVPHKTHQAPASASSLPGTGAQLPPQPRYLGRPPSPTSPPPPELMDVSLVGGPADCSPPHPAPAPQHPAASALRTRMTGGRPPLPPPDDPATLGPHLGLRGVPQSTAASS

## c1cc(NCc2ccsc2)nc(-c2n[nH]c3nc(NCCN4CCOCC4)ncc23)c1 [Example 60, (2-Morpholin-4-yl-ethyl)-(3-{6-[(thiophen-3-ylmethyl)-amino]-pyridin-2-yl}-1H-pyrazolo[3,4-d]pyrimidin-6-yl)-amine]
[1]
  IC50: 0.234 µM
[2]
  IC50: 0.785 µM
[3]
  EC50: > 10 µM

## c1ccc(CNc2nccc(-c3n[nH]c4nc(NCCN5CCOCC5)ncc34)n2)cc1 [Example 61, [3-(2-Benzylamino-pyrimidin-4-yl)-1H-pyrazolo[3,4-d]pyrimidin-6-yl]-(2-morpholin-4-yl-ethyl)-amine; hydrochloride]
[1]
  IC50: 0.0958 µM
[2]
  IC50: 0.061 µM
[3]
  EC50: > 10 µM

## Clc1cccc(CNc2nccc(-c3n[nH]c4nc(NCCN5CCOCC5)ncc34)n2)c1 [Example 62, {3-[2-(3-Chloro-benzylamino)-pyrimidin-4-yl]-1H-pyrazolo[3,4-d]pyrimidin-6-yl}-(2-morpholin-4-yl-ethyl)-amine; hydrochloride]
[1]
  IC50: 0.0586 µM
[2]
  IC50: 0.0384 µM
[3]
  EC50: > 10 µM

## Clc1ccccc1CNc1nccc(-c2n[nH]c3nc(NCCN4CCOCC4)ncc23)n1 [Example 63, {3-[2-(2-Chloro-benzylamino)-pyrimidin-4-yl]-1H-pyrazolo[3,4-d]pyrimidin-6-yl}-(2-morpholin-4-yl-ethyl)-amine; hydrochloride]
[1]
  IC50: 0.0671 µM
[2]
  IC50: 0.0371 µM
[3]
  EC50: 0.9 µM

## Clc1ccc(CNc2nccc(-c3n[nH]c4nc(NCCN5CCOCC5)ncc34)n2)cc1 [Example 64, {3-[2-(4-Chloro-benzylamino)-pyrimidin-4-yl]-1H-pyrazolo[3,4-d]pyrimidin-6-yl}-(2-morpholin-4-yl-ethyl)-amine; hydrochloride]
[1]
  IC50: 0.353 µM
[2]
  IC50: 0.242 µM
[3]
  EC50: > 10 µM

## N[C@H]1CC[C@H](Nc2ncc3c(-c4ccnc(NCc5ccsc5)n4)n[nH]c3n2)CC1 [Example 66, N-(3-{2-[(Thiophen-3-ylmethyl)-amino]-pyrimidin-4-yl}-1H-pyrazolo[3,4-d]pyrimidin-6-yl)-cyclohexane-1,4-diamine; hydrochloride]
[1]
  IC50: 0.0172 µM
[2]
  IC50: 0.0148 µM
[3]
  EC50: 0.04 µM

## NCCC(Nc1cccc(-c2n[nH]c3nc(N[C@H]4CC[C@H](N)CC4)ncc23)n1)c1ccccc1 (stereo partly drawn) [Example 69, N-{3-[6-(3-Amino-1-phenyl-propylamino)-pyridin-2-yl]-1H-pyrazolo[3,4-d]pyrimidin-6-yl}-cyclohexane-1,4-diamine; hydrochloride]
[1]
  IC50: 0.197 µM
[2]
  IC50: 0.231 µM
[3]
  EC50: 0.001 µM

## N[C@H]1CC[C@H](Nc2ncc3c(-c4ccnc(NCc5ccccc5)n4)n[nH]c3n2)CC1 [Example 70, N-[3-(2-Benzylamino-pyrimidin-4-yl)-1H-pyrazolo[3,4-d]pyrimidin-6-yl]-cyclohexane-1,4-diamine; hydrochloride]
[1]
  IC50: 0.0125 µM
[2]
  IC50: 0.0062 µM
[3]
  EC50: > 10 µM

## N[C@H]1CC[C@H](Nc2ncc3c(-c4ccnc(NCc5cccc(Cl)c5)n4)n[nH]c3n2)CC1 [Example 71, N-{3-[2-(3-Chloro-benzylamino)-pyrimidin-4-yl]-1H-pyrazolo[3,4-d]pyrimidin-6-yl}-cyclohexane-1,4-diamine; hydrochloride]
[1]
  IC50: 0.006 µM
[2]
  IC50: 0.0046 µM
[3]
  EC50: 0.027 µM

## N[C@H]1CC[C@H](Nc2ncc3c(-c4ccnc(NCc5ccc(Cl)cc5)n4)n[nH]c3n2)CC1 [Example 72, N-{3-[2-(4-Chloro-benzylamino)-pyrimidin-4-yl]-1H-pyrazolo[3,4-d]pyrimidin-6-yl}-cyclohexane-1,4-diamine; hydrochloride]
[1]
  IC50: 0.009 µM
[2]
  IC50: 0.013 µM
[3]
  EC50: 0.056 µM

## NCC(Nc1cccc(-c2n[nH]c3nc(N[C@H]4CC[C@H](N)CC4)ncc23)n1)c1ccccc1 (stereo partly drawn) [Example 74, N-{3-[6-(2-Amino-1-phenyl-ethylamino)-pyridin-2-yl]-1H-pyrazolo[3,4-d]pyrimidin-6-yl}-cyclohexane-1,4-diamine; hydrochloride]
[1]
  IC50: < 0.0046 µM
[2]
  IC50: 0.0046 µM
[3]
  EC50: > 10 µM
